{
  "source": "paper PMC9705864",
  "about": "“SCO6992, a Protein with β-Glucuronidase Activity, Complements a Mutation at the absR Locus and Promotes Antibiotic Biosynthesis in Streptomyces coelicolor” (Journal of Microbiology and Biotechnology, 2021)",
  "key": {"[1]": {"target": "T1, MBP-SCO6992 (rSCO6992; ORF-1; absR1) (Streptomyces coelicolor, UniProt Q7AKD9)", "T1 construct": "N-terminal MBP fusion (pMAL-c2x) kept, about 82 kDa; E. coli JM109", "T1 sequence (Q7AKD9 1-359)": "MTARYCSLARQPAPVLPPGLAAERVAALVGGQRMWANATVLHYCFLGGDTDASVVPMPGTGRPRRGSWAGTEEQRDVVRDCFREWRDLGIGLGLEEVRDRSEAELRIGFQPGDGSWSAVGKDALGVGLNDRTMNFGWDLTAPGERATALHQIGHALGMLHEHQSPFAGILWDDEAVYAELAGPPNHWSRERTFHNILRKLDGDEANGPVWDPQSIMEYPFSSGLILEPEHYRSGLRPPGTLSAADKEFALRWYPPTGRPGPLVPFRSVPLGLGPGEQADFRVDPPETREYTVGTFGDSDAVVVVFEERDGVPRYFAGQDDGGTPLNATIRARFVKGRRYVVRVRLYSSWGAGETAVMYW", "test": "native PAGE zymogram with Fast Garnet", "assay_type": "biochemical", "details": "0.2 M sodium acetate pH 5.2"}, "[2]": {"target": "T1, MBP-SCO6992 (rSCO6992; ORF-1; absR1)", "test": "p-nitrophenol release, absorbance at […] nm", "assay_type": "biochemical", "details": "1.67 mM substrate, 83 mM acetate pH 4.5, 37°C, 1 h; without added Zn2+"}},
  "data": [
    {"smiles": "COc1ccccc1NC(=O)c1cc2cc(Br)ccc2cc1O[C@@H]1O[C@H](C(=O)O)[C@@H](O)[C@H](O)[C@H]1O", "note": "[naphthol AS-BI-β-D-glucuronide]", "values": [
      {"measurement": "native PAGE zymogram with Fast Garnet", "setting": "[1]", "result": "purified MBP-SCO6992 protein had β-glucuronidase activity on an artificial substrate such as AS-BI-β-D-glucuronide"}
    ]},
    {"smiles": "O=C(O)[C@H]1O[C@@H](Oc2ccc([N+](=O)[O-])cc2)[C@H](O)[C@@H](O)[C@@H]1O", "note": "[p-nitrophenyl-β-D-glucuronide]", "values": [
      {"measurement": "p-nitrophenol release, absorbance at 415 nm", "setting": "[2]", "result": "when measuring β-glucuronidase activity using p-nitrophenyl-β-D-glucuronide as substrate, a strong activity was detected"}
    ]}
  ]
}
